{"source": "ChEMBL document CHEMBL5120777", "about": "“Incorporating Selenium into Heterocycles and Natural Products─From Chemical Properties to Pharmacological Activities” (J Med Chem, 2022)", "format_in_all_cases": "functional, cell-based", "key": {"SK-OV-3": {"system": "SK-OV-3", "assay": "Antiproliferative activity against human SK-OV-3 cells assessed as inhibition of cell growth incubated for 72 hrs by MTT assay", "settings": "SK-OV-3, 72 h"}, "PC-3": {"system": "PC-3", "assay": "Antiproliferative activity against human PC-3 cells assessed as inhibition of cell growth incubated for 72 hrs by MTT assay", "settings": "PC-3, 72 h"}, "T47D": {"system": "T47D", "assay": "Antiproliferative activity against human T47D cells assessed as inhibition of cell growth incubated for 72 hrs by MTT assay"}}, "data": [{"smiles": "CC(=O)O[C@H]1CC[C@@]2(C)C(=CC[C@@H]3[C@@H]2CC[C@]2(C)C(c4cccnc4)=CC[C@@H]32)C1", "note": "[ABIRATERONE ACETATE]", "values": [{"measurement": "IC50", "setting": "SK-OV-3", "value": 51.5, "unit": "µM"}, {"measurement": "IC50", "setting": "PC-3", "value": 37.6, "unit": "µM"}, {"measurement": "IC50", "setting": "T47D", "value": 34.7, "unit": "µM"}]}]}
